Legend:
Experiment in all cases: MIC, broth microdilution (CLSI), substance alone or ATB combined with compound at 4 or 8 μg/mL
KPN BAA-1898 = assay type: cell-based, K. pneumoniae; conditions: KPN BAA-1898; for MIC ATB combined with Example: Example @8 μg/ml
Method in brief: (§1)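 Per CLSI-M7-A7, MICs are determined in cation-adjusted Mueller-Hinton broth with a final inoculum of 5·10^5 CFU/mL. Plates incubate 16-20 h at 35° C in air and are read by eye. Fosfomycin assays carry 25 μg/ml glucose-6-phosphate.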

KPN 6299 = assay type: cell-based, K. pneumoniae; conditions: for MIC ATB combined with Example: Example @8 μg/ml
Method in brief: as §1

KPN UFR42 = assay type: cell-based, K. pneumoniae; conditions: KPN UFR42; for MIC ATB combined with Example: Example @8 μg/ml; for MIC ATB combined with Example compound: compound @8 μg/ml
Method in brief: as §1

PAE UFR90 = assay type: cell-based, P. aeruginosa; conditions: PAE UFR90; for MIC ATB combined with Example: Example @8 μg/ml; for MIC ATB combined with Example compound: compound @8 μg/ml
Method in brief: as §1

PAE 105250 = assay type: cell-based, P. aeruginosa; conditions: PAE 105250; for MIC ATB combined with Example: Example @8 μg/ml; for MIC ATB combined with Example compound: compound @8 μg/ml
Method in brief: as §1

PAE UFR48 = assay type: cell-based, P. aeruginosa; conditions: PAE UFR48; for MIC ATB combined with Example: Example @8 μg/ml; for MIC ATB combined with Example compound: compound @8 μg/ml
Method in brief: as §1

SPN 49619 = assay type: cell-based, S. pneumoniae; conditions: SPN 49619; for MIC ATB combined with Example: Example @8 μg/ml; for MIC ATB combined with Example compound: compound @8 μg/ml
Method in brief: as §1

ECL P99 = assay type: cell-based, E. cloacae; conditions: ECL P99; for MIC ATB combined with Example: Example @8 μg/ml
Method in brief: as §1

ABA UFR154 = assay type: cell-based, A. baumannii; conditions: substance alone
Method in brief: as §1

ABA UFR155 = assay type: cell-based, A. baumannii; conditions: substance alone
Method in brief: as §1

ECO UFR39 = assay type: cell-based, E. coli; conditions: ECO UFR39; for MIC ATB combined with Example: Example @8 μg/ml; for MIC ATB combined with Example compound: compound @8 μg/ml
Method in brief: as §1

ECO 190317 = assay type: cell-based, E. coli; conditions: ECO 190317; for MIC ATB combined with Example: Example @8 μg/ml
Method in brief: as §1

SAU 29213 = assay type: cell-based, S. aureus; conditions: for MIC ATB combined with Example / MIC ATB combined with Example compound: SAU 29213; for MIC ATB combined with Example: Example @8 μg/ml; for MIC ATB combined with Example compound: compound @8 μg/ml
Method in brief: as §1

MIC ATB combined with Example (KPN BAA-1898; ATB ATM): <0.031 µg/mL
MIC ATB combined with Example (KPN BAA-1898; ATB FEP): <0.031 µg/mL
MIC ATB combined with Example (KPN BAA-1898; ATB FOS): <0.125 µg/mL
MIC ATB combined with Example (KPN BAA-1898; ATB MEM): <0.031 µg/mL
MIC ATB combined with Example (KPN BAA-1898; ATB PIP): <0.031 µg/mL
MIC ATB combined with Example compound (KPN BAA-1898; MIC of CIP, compound @8 μg/ml): <0.031 µg/mL
MIC (KPN BAA-1898; substance alone): 2 µg/mL
MIC ATB combined with Example (KPN 6299; ATB ATM): <0.031 µg/mL
MIC ATB combined with Example (KPN 6299; ATB FEP): <0.031 µg/mL
MIC ATB combined with Example (KPN 6299; ATB FOS): <0.125 µg/mL
MIC ATB combined with Example (KPN 6299; ATB MEM): <0.031 µg/mL
MIC ATB combined with Example (KPN 6299; ATB PIP): <0.031 µg/mL
MIC ATB combined with Example compound (KPN 6299; MIC of CIP, compound @8 μg/ml): <0.031 µg/mL
MIC ATB combined with Example (KPN UFR42; ATB ATM): <0.031 µg/mL
MIC ATB combined with Example (KPN UFR42; ATB FEP): <0.031 µg/mL
MIC ATB combined with Example (KPN UFR42; ATB FOS): <0.125 µg/mL
MIC ATB combined with Example (KPN UFR42; ATB MEM): <0.031 µg/mL
MIC ATB combined with Example (KPN UFR42; ATB PIP): <0.031 µg/mL
MIC ATB combined with Example compound (KPN UFR42; MIC of CIP): <0.031 µg/mL
MIC ATB combined with Example compound (KPN UFR42; MIC of CPO): <0.031 µg/mL
MIC (KPN UFR42; substance alone): 4 µg/mL
MIC ATB combined with Example (PAE UFR90; ATB ATM): 16 µg/mL
MIC ATB combined with Example (PAE UFR90; ATB FEP): 4 µg/mL
MIC ATB combined with Example (PAE UFR90; ATB FOS): 8 µg/mL
MIC ATB combined with Example (PAE UFR90; ATB MEM): 1 µg/mL
MIC ATB combined with Example (PAE UFR90; ATB PIP): >32 µg/mL
MIC ATB combined with Example compound (PAE UFR90; MIC of CIP): 1 µg/mL
MIC ATB combined with Example compound (PAE UFR90; MIC of CPO): 8 µg/mL
MIC (PAE UFR90; substance alone): >32 µg/mL
MIC ATB combined with Example (PAE 105250; ATB ATM): 8 µg/mL
MIC ATB combined with Example (PAE 105250; ATB FEP): 2 µg/mL
MIC ATB combined with Example (PAE 105250; ATB FOS): >128 µg/mL
MIC ATB combined with Example (PAE 105250; ATB MEM): 1 µg/mL
MIC ATB combined with Example (PAE 105250; ATB PIP): 32 µg/mL
MIC ATB combined with Example compound (PAE 105250; MIC of CIP): 0.125 µg/mL
MIC ATB combined with Example compound (PAE 105250; MIC of CPO): 8 µg/mL
MIC (PAE 105250; substance alone): >32 µg/mL
MIC ATB combined with Example (PAE UFR48; ATB ATM): 8 µg/mL
MIC ATB combined with Example (PAE UFR48; ATB FEP): 16 µg/mL
MIC ATB combined with Example (PAE UFR48; ATB FOS): 16 µg/mL
MIC ATB combined with Example (PAE UFR48; ATB MEM): 0.5 µg/mL
MIC ATB combined with Example (PAE UFR48; ATB PIP): 16 µg/mL
MIC ATB combined with Example compound (PAE UFR48; MIC of CIP): 4 µg/mL
MIC ATB combined with Example compound (PAE UFR48; MIC of CPO): >32 µg/mL
MIC (PAE UFR48; substance alone): >32 µg/mL
MIC ATB combined with Example (SPN 49619; ATB ATM): >32 µg/mL
MIC ATB combined with Example (SPN 49619; ATB FEP): <=0.031 μg/mL
MIC ATB combined with Example (SPN 49619; ATB FOS): 8 µg/mL
MIC ATB combined with Example (SPN 49619; ATB MEM): <=0.031 μg/mL
MIC ATB combined with Example (SPN 49619; ATB PIP): 0.25 µg/mL
MIC ATB combined with Example compound (SPN 49619; MIC of CIP): 0.063 µg/mL
MIC ATB combined with Example compound (SPN 49619; MIC of CLI): <0.0010 µg/mL
MIC ATB combined with Example compound (SPN 49619; MIC of CPO): <=0.031 μg/mL
MIC ATB combined with Example compound (SPN 49619; MIC of DAP): 0.031 µg/mL
MIC ATB combined with Example compound (SPN 49619; MIC of ERY): <0.0020 µg/mL
MIC ATB combined with Example compound (SPN 49619; MIC of LZD): 0.25 µg/mL
MIC ATB combined with Example compound (SPN 49619; MIC of RIF): 0.00049 µg/mL
MIC ATB combined with Example compound (SPN 49619; MIC of SYN): 0.125 µg/mL
MIC ATB combined with Example compound (SPN 49619; MIC of VAN): 0.016 µg/mL
MIC (SPN 49619; substance alone): 8 µg/mL
MIC ATB combined with Example (ECL P99; ATB ATM): <0.031 µg/mL
MIC ATB combined with Example (ECL P99; ATB FEP): <0.031 µg/mL
MIC ATB combined with Example (ECL P99; ATB FOS): <0.125 µg/mL
MIC ATB combined with Example (ECL P99; ATB MEM): <0.031 µg/mL
MIC ATB combined with Example (ECL P99; ATB PIP): <0.031 µg/mL
MIC ATB combined with Example compound (ECL P99; MIC of CIP, compound @8 μg/ml): <0.031 µg/mL
MIC (ECL P99; substance alone): 1 µg/mL
MIC (ABA UFR154): >32 µg/mL
MIC (ABA UFR155): >32 µg/mL
MIC ATB combined with Example (ECO UFR39; ATB ATM): <0.031 µg/mL
MIC ATB combined with Example (ECO UFR39; ATB FEP): <0.031 µg/mL
MIC ATB combined with Example (ECO UFR39; ATB FOS): <0.125 µg/mL
MIC ATB combined with Example (ECO UFR39; ATB MEM): <0.031 µg/mL
MIC ATB combined with Example (ECO UFR39; ATB PIP): <0.031 µg/mL
MIC ATB combined with Example compound (ECO UFR39; MIC of CIP): <0.031 µg/mL
MIC ATB combined with Example compound (ECO UFR39; MIC of CPO): <0.031 µg/mL
MIC (ECO UFR39; substance alone): 1 µg/mL
MIC ATB combined with Example (ECO 190317; ATB ATM): <0.031 µg/mL
MIC ATB combined with Example (ECO 190317; ATB FEP): <0.031 µg/mL
MIC ATB combined with Example (ECO 190317; ATB FOS): <0.125 µg/mL
MIC ATB combined with Example (ECO 190317; ATB MEM): <0.031 µg/mL
MIC ATB combined with Example (ECO 190317; ATB PIP): <0.031 µg/mL
MIC ATB combined with Example compound (ECO 190317; MIC of CIP, compound @8 μg/ml): <0.031 µg/mL
MIC (ECO 190317; substance alone): 1 µg/mL
MIC ATB combined with Example (SAU 29213; ATB ATM): <0.031 µg/mL
MIC ATB combined with Example (SAU 29213; ATB FEP): <0.031 µg/mL
MIC ATB combined with Example (SAU 29213; ATB FOS): <0.125 µg/mL
MIC ATB combined with Example (SAU 29213; ATB MEM): <0.031 µg/mL
MIC ATB combined with Example (SAU 29213; ATB PIP): <0.031 µg/mL
MIC ATB combined with Example compound (SAU 29213; MIC of CIP): <0.031 µg/mL
MIC ATB combined with Example compound (SAU 29213; MIC of CLI): <0.0010 µg/mL
MIC ATB combined with Example compound (SAU 29213; MIC of CPO): <0.031 µg/mL
MIC ATB combined with Example compound (SAU 29213; MIC of DAP): <0.0020 µg/mL
MIC ATB combined with Example compound (SAU 29213; MIC of ERY): <0.0020 µg/mL
MIC ATB combined with Example compound (SAU 29213; MIC of LZD): <0.0078 µg/mL
MIC ATB combined with Example compound (SAU 29213; MIC of RIF): <0.00012 µg/mL
MIC ATB combined with Example compound (SAU 29213; MIC of SYN): <0.0020 µg/mL
MIC ATB combined with Example compound (SAU 29213; MIC of VAN): <0.0039 µg/mL
MIC (SAU 29213; substance alone, SAU 29213 (MSSA 29213)): 8 µg/mL
SMILES: O=C1N2CC(n3ccnn3)=CC(C2)N1OS(=O)(=O)[O-].[Na+] (stereo not drawn) [Example 12, sodium [7-oxo-3-(triazol-1-yl)-1,6-diazabicyclo[3.2.1]oct-3-en-6-yl] sulfate]

— patent US20200024278A1, “COMPOSITION COMPRISING ANTIBIOTIC COMPOUND AND AN HETEROCYCLIC COMPOUND AND THEIR USE IN PREVENTING OR TREATING BACTERIAL INFECTIONS” (MUTABILIS, priority 2016, published 2020)
